Experiments:
Assay in all cases: biochemical kinase assay at […] ATP
Conditions in all cases: read-out: NDI-031301
JAK3 = target: T1, JAK3 (Homo sapiens, UniProt P52333)
T1 sequence (P52333 1-1124): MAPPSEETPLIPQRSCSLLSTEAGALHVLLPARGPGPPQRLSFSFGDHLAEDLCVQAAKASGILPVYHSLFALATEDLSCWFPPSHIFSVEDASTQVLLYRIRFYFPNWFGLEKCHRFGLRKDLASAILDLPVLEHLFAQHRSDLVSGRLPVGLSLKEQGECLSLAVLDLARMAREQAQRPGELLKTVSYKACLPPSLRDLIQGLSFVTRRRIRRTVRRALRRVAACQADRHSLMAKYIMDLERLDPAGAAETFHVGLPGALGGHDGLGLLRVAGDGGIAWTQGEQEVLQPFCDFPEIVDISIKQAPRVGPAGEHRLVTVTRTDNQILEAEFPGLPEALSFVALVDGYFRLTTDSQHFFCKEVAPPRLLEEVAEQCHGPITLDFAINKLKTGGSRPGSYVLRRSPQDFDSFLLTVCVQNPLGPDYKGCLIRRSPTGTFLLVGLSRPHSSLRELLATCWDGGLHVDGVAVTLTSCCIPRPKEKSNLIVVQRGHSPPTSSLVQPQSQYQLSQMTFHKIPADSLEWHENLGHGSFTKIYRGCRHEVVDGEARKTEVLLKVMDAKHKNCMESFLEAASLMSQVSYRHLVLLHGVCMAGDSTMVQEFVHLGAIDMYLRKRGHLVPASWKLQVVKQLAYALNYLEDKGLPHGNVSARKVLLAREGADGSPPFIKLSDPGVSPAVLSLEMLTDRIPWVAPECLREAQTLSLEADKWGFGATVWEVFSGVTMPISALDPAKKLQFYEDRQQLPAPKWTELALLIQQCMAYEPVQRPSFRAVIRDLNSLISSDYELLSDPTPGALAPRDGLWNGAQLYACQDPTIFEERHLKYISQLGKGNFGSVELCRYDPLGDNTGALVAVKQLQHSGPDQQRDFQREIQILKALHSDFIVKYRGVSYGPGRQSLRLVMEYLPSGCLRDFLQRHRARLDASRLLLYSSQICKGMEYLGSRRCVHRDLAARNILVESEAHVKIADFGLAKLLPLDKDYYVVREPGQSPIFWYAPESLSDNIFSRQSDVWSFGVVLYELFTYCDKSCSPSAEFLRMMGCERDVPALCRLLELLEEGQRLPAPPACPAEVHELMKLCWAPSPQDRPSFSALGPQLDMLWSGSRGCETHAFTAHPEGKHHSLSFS

JAK1 = JAK1 (Homo sapiens, UniProt P23458)
Chain of JAK1 (P23458 whole entry): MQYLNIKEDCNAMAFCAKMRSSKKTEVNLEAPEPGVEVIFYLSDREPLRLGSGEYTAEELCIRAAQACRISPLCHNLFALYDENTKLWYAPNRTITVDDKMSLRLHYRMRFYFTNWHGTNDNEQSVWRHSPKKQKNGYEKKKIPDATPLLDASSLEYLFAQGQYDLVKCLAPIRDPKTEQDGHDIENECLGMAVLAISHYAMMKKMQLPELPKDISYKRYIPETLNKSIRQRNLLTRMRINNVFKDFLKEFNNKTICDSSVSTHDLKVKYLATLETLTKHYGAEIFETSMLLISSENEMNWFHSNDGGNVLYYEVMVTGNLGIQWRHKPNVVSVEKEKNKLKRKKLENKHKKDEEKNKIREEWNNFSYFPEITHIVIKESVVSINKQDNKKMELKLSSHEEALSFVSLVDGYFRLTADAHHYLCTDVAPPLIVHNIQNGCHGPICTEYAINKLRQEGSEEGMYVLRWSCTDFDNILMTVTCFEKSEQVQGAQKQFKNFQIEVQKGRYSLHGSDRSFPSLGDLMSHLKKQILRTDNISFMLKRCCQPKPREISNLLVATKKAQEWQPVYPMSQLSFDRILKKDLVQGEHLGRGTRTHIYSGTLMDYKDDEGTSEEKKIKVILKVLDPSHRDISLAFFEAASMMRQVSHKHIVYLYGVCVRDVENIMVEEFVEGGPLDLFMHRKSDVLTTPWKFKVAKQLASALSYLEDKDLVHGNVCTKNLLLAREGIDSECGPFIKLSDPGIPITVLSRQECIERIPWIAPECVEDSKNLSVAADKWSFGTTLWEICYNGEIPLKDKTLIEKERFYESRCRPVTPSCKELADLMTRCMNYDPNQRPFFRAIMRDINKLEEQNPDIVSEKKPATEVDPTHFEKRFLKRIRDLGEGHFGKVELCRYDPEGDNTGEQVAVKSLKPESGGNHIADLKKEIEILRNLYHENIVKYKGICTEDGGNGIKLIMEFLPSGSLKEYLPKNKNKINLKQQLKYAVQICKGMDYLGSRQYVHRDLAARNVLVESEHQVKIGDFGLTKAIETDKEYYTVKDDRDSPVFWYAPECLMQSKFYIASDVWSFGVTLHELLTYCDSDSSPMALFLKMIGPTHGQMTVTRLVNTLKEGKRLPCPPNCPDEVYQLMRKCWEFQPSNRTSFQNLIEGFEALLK

JAK2 = JAK2 (Homo sapiens, UniProt O60674)
Chain of JAK2 (O60674 whole entry): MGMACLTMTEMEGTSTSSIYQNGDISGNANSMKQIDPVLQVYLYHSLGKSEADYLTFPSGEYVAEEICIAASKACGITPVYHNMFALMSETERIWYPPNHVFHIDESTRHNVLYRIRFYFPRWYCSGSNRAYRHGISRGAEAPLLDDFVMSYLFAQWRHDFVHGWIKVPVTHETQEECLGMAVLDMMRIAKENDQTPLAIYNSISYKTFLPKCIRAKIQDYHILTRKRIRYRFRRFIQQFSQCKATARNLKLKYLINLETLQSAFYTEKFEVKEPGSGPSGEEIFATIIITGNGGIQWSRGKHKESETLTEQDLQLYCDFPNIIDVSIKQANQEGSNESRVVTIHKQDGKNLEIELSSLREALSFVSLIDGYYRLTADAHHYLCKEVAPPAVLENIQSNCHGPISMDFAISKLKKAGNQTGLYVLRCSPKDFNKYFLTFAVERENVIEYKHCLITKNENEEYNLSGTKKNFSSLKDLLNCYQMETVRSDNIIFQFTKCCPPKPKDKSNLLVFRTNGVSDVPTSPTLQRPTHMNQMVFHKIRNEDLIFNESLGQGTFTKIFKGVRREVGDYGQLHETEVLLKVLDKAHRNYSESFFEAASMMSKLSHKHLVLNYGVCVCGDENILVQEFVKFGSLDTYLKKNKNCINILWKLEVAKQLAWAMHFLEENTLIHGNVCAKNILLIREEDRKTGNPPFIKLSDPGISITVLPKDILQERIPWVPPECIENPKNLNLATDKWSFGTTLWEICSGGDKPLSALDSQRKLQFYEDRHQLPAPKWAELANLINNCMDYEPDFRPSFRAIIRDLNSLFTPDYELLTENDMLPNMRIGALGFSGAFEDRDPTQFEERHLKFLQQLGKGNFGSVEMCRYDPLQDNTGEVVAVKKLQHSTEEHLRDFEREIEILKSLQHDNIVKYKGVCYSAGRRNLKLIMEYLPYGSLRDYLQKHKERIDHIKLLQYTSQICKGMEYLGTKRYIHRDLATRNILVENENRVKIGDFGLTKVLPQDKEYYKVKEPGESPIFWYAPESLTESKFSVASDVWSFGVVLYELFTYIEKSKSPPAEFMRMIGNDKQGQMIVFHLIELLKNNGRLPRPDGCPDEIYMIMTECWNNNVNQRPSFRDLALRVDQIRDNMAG

TYK2 = TYK2 (Homo sapiens, UniProt P29597)
Chain of TYK2 (P29597 whole entry): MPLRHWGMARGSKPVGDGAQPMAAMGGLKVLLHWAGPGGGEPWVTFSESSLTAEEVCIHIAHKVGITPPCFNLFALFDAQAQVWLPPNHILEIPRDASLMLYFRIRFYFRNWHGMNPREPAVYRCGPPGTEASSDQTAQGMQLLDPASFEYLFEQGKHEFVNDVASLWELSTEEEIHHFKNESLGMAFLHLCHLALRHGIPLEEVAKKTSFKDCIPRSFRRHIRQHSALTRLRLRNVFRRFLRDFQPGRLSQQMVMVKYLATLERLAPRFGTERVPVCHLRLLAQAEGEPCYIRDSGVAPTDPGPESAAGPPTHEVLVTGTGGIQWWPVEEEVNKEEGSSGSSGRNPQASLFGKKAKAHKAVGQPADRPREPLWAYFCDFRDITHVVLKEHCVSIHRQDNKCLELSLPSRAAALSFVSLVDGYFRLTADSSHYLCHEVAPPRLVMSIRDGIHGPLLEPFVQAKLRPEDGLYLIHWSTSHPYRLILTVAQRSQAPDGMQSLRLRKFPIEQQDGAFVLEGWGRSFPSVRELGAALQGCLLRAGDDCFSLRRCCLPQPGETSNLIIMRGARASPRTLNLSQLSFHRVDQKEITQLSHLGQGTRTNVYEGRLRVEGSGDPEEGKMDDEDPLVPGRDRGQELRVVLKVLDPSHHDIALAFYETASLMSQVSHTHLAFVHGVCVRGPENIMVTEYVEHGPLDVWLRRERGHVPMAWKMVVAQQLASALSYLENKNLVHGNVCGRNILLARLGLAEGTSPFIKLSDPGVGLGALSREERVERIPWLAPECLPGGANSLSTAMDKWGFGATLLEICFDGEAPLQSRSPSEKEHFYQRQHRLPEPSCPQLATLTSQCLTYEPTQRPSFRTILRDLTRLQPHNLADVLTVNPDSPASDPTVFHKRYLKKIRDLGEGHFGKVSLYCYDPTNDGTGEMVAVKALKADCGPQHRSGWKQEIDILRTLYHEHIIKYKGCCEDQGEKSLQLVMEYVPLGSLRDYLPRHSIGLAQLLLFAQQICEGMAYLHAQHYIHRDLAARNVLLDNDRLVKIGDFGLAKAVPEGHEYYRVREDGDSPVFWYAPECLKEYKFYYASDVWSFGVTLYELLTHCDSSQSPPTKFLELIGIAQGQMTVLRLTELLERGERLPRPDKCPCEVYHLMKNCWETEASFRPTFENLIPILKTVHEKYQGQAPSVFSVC

Ki (JAK3): 2.48 µM
Ki (JAK1): 2.2 µM
Ki (JAK2): 2.75 µM
Ki (TYK2): 0.13 µM
Substance: NDI-031301

Source: publication PMC5384871 (British journal of haematology, 2017)
